What was measured:
[1] = system: BV-2 cells; test: Aβ1-42 clearance assay; type: cell-based, mouse
Protocol: AB Clearance: For the amyloid beta (Aβ) clearance assay, 20000 BV-2 cells per well (uncoated 96 well plates) were plated out. After changing cells to treatment medium, drug compounds were administered 1 hour before Aβ stimulation (Bachem 4061966; final concentration in well: 200 ng/ml (dilutions in medium)). Cells treated with vehicle and cells treated with Aβ alone served as controls. After 3 h of Aβ stimulation, cell supernatants were collected for the Aβ measurement and cells were carefully washed twice with PBS and thereafter lysed in 35 μL cell lysis buffer (50 mM Tris-HCl, pH 7.4, 150 mM NaCl, 5 mM EDTA, 1% SDS) supplemented with protease inhibitors. Supernatants and cell lysates were analyzed for human Aβ42 with MSD® V-PLEX Human Aβ42 Peptide (6E10) Kit (K151LBE, Mesoscale Discovery). The immune assay was carried out according to the manual and plates were read on the MESO QuickPlex SQ 120.
Aβ1-42 clearance: For Abeta (Aβ1-42) clearance assay, 20,000 BV-2 cells per well (uncoated 96 well plates) were plated out. After changing cells to treatment medium, HCQ (0.25 μM, 2.5 μM and 25 μM) was applied 1 hour before Aβ1-42 stimulation (Bachem 4061966; final concentration in well: 200 ng/ml (dilutions in medium)). Cells treated with vehicle (0.1% DMSO) and cells treated with Aβ1-42 alone served as controls. After 3 h of Aβ1-42 stimulation, cell supernatants were collected for the Aβ1-42 measurement and cells were carefully washed twice with PBS and thereafter lysed in 35 μL cell lysis buffer (50 mM Tris-HCl, pH 7.4, 150 mM NaCl, 5 mM EDTA, 1% SDS) supplemented with protease inhibitors. Supernatants and cell lysates were analyzed for human Aβ1-42 with MSD® V-PLEX Human Aβ42 Peptide (6E10) Kit (K151LBE, Mesoscale Discovery). The immune assay was carried out according to the manufacturer's manual and plates were read on the MESO QuickPlex SQ 120.
Aβ Clearance: 20,000 BV2 cells per well (uncoated 96-well plates were plated out. After changing cells to treatment medium, drug compounds were administered 1 hour before Aβ stimulation (final concentration in well 200 ng/ml; dilutions in medium). Cells treated with vehicle and cells treated with Aβ alone served as controls. After 3 hours of Aβ stimulation, cell supernatants were collected for the Aβ measurement and cells were carefully washed twice with PBS and thereafter lysed in 35 μl of cell lysis buffer (50 mM tris-HCl, pH 7.4, 150 mM NaCl, 5 mM EDTA, and 1% SDS) supplemented with protease inhibitors. Supernatants and cell lysates were analyzed for human Aβ42 with the MSD V-PLEX Human Aβ42 Peptide (6E10) Kit (K151LBE, Mesoscale Discovery). The immune assay was carried out according to the manual, and plates were read on MESO QuickPlex SQ 120 (Meso Scale Diagnostics, Rockville, MD).
For Aβ clearance assay, 20,000 BV-2 cells per well (uncoated 96 well plates) were plated out. After 24 hours, medium was changed to treatment medium (DMEM, 5% FCS, 2 mM L-glutamine) and cells were maintained in treatment medium for the remaining culture period. After changing cells to treatment medium, the test items were administered 1 hour before Aβ stimulation (Bachem 4061966; final concentration in well: 200 ng/mL (dilutions in medium)). Cells treated with vehicle, cells treated with Aβ alone, as well as wells with Aβ but no cells served as controls. All wells were handled the same way. After 3 h of Aβ stimulation, cell supernatants were collected for the Aβ measurement and cells were carefully washed twice with PBS and thereafter lysed in 35 μl cell lysis buffer (50 mM Tris-HCl, pH 7.4, 150 mM NaCl, 5 mM EDTA, 1% SDS) supplemented with protease inhibitors. Cells were incubated for 15 min at RT on a plate shaker, samples were frozen at −80° C. until further use. The experiment was performed in n=6 technical replicates for all groups. […]

[2] = system: hippocampal CA1 synapses of APP/PS1 mice; test: Late long-term potentiation, field recordings in hippocampal slices; design: species or system mouse; conditions: for impaired late-LTP: APP/PS1 slices
[3] = WT and APP/PS1 before and after HCQ

Compound	Aβ1-42 clearance ([1]; 25 μM)	Aβ1-42 in the supernatant ([1]; 25 μM)	Aβ1-42 supernatant:lysate ratio ([1]; 25 μM)	cell viability ([1]; 25 μM)	impaired late-LTP ([2]; 25 μM HCQ sulphate, bath-applied 60 min)	impaired late-LTP ([2]; 50 μM HCQ sulphate)	input-output (I/O) curves [2, 3]	paired pulse ratio (PPR) [2, 3]	L-LTP in wild type slices ([2]; wild type mice, 50 μM HCQ, vs untreated wild type)	effect in Aβ clearance (BV2 cells) ([1]; posterior probability of a protective effect, Bayesian dose-response model)	LTP in APP/PS1 mice ([2]; 100 μM TUDCA)
CCN(CCO)CCCC(C)Nc1ccnc2cc(Cl)ccc12 (centres unmarked) [HCQ, hydroxychloroquine]	increased	reduced	lowering	without adverse effects on cell viability	partially rescued	fully rescued	did not show any significant differences	did not show a significant difference	does not alter L-LTP	–	–
C[C@H](CCC(=O)NCCS(=O)(=O)O)[C@H]1CC[C@H]2[C@@H]3[C@@H](O)C[C@@H]4C[C@H](O)CC[C@]4(C)[C@H]3CC[C@]12C [TUDCA, tauroursodeoxycholic acid]	–	–	–	–	–	–	–	–	–	strongly protective	no longer induced LTP

— patent US20240269128A1, “COMPOUNDS FOR TREATING OR PREVENTING ALZHEIMER'S DISEASE” (THE UNITED STATES OF AMERICA, as represented by the …, priority 2021, published 2024)
